Data as given in article PMC3446790 (Cellular signalling, 2010).
Entries after “also recorded” stand apart in the source; their conditions may differ.

Experiments:
P2Y10/Gα16 = P2Y10/Gα16 (Homo sapiens, UniProt O00398+P30679); assay: Antagonism of S1P-induced Ca2+ mobilization in CHO cells expressing P2Y10/Gα16; type: cell-based
S1P5 [1] = molecular target: T1, S1P5 (Homo sapiens, UniProt Q9H228); assay: Antagonism of S1P-induced Ca2+ mobilization in S1P5-expressing HTC4 cells; type: cell-based
recombinant ATX = recombinant ATX (Homo sapiens, UniProt Q13822); assay: ATX assay; type: biochemical; settings: FS-3 substrate
C57BL/6 mice = assay: Whole blood lymphocyte counting in mice; type: in vivo; settings: 1 mg/kg intraperitoneal
S1P2 [2] = molecular target: T2, S1P2 (Homo sapiens, UniProt O95136); assay: Ca2+ mobilization; type: cell-based; settings: concentrations up to 10 μM
S1P4 [3] = molecular target: T3, S1P4 (Homo sapiens, UniProt O95977); assay: Ca2+ mobilization; type: cell-based; settings: Ca2+ mobilization, concentrations up to 10 μM
T3 sequence (O95977 1-384): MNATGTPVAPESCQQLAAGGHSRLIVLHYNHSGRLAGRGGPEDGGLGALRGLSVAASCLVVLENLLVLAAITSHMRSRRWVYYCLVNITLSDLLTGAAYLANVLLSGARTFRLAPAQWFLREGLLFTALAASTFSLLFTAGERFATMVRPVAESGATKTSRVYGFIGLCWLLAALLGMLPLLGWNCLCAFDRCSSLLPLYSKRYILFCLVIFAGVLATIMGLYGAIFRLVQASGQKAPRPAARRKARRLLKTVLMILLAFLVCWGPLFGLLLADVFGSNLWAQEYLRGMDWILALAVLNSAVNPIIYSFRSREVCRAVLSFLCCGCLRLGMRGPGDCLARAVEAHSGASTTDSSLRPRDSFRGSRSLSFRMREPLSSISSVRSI

LPA1,2,3,4,5 and GPR87 = assay: Ca2+ mobilization in cells transfected with LPA receptors; type: cell-based; settings: data not shown
S1P1 [4] = molecular target: T4, S1P1 (Homo sapiens, UniProt P21453); assay: Receptor desensitization assay in S1P1-expressing HTC4 cells; type: cell-based; settings: 300 nM, 2 h preincubation
S1P3 [5] = molecular target: T5, S1P3 (Homo sapiens, UniProt Q99500); assay: Ca2+ mobilization; type: cell-based; settings: Ca2+ mobilization, concentrations up to 10 μM
S1P1-eGFP = S1P1-eGFP (Homo sapiens, UniProt P21453); type: cell-based; settings: 100 nM, 30 min, HEK293
S1P1 [6] = molecular target: T4, S1P1; assay: Ca2+ mobilization; type: cell-based; settings: Ca2+ mobilization, concentrations up to 10 μM
sphingosine kinase 1 = settings: cited from earlier work
[7] = system: ERK1/2 and AKT in IEC-6 cells; assay: Immunoblot analysis of ERK1/2 and AKT phosphorylation; type: cell-based, rat
IEC-6 cells = assay: DNA fragmentation ELISA, camptothecin-induced apoptosis; type: cell-based, rat
S1P4 [8] = molecular target: T3, S1P4; assay: Antagonism of S1P-induced Ca2+ mobilization in S1P4-expressing HTC4 cells; type: cell-based
S1P1 [9] = molecular target: T4, S1P1; assay: Antagonism of S1P-induced Ca2+ mobilization in S1P1-expressing HTC4 cells; type: cell-based
S1P2 [10] = molecular target: T2, S1P2; assay: Antagonism of S1P-induced Ca2+ mobilization in S1P2-expressing HTC4 cells; type: cell-based
S1P5 [11] = molecular target: T1, S1P5; assay: Ca2+ mobilization; type: cell-based; settings: concentrations up to 10 μM
S1P3 [12] = molecular target: T5, S1P3; assay: Antagonism of S1P-induced Ca2+ mobilization in S1P3-expressing HTC4 cells; type: cell-based
[13] = shift of S1P dose response curve

T5 sequence (Q99500 whole entry, species assumed): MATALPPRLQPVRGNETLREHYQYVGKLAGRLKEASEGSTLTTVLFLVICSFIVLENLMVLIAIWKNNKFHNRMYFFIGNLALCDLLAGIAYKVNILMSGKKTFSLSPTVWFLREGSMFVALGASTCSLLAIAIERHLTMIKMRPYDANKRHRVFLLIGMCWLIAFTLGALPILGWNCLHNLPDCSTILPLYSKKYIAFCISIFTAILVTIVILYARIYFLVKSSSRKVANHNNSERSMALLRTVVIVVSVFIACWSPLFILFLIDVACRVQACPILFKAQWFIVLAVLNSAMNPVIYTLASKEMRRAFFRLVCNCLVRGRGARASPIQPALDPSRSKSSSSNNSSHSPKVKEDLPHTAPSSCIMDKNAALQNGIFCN
T2 sequence (O95136 whole entry, species assumed): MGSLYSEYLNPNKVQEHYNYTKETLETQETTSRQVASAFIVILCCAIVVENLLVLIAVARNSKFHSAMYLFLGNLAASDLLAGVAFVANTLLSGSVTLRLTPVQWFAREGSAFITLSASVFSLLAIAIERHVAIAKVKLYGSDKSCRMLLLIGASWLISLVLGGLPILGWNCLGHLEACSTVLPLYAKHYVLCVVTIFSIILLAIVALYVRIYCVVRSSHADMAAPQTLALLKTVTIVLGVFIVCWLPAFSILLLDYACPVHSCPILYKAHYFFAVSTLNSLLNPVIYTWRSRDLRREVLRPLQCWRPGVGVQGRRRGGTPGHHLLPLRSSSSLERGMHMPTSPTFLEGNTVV
T1 sequence (Q9H228 whole entry, species assumed): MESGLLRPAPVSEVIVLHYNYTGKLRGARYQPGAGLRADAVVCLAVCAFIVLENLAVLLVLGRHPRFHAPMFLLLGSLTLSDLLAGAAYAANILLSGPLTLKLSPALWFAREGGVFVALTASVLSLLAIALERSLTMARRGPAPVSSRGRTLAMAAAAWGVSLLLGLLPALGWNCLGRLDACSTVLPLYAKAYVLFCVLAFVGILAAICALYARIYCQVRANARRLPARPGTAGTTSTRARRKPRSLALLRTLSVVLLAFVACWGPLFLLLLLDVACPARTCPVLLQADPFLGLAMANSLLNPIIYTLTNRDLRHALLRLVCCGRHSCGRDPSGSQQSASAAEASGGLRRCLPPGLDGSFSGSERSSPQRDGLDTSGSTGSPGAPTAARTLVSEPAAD

## CCCCCCCCc1ccc(CC[C@](N)(/C=C/P(=O)(O)O)CO)cc1 [(S)-ene, (S)-FTY720-vinylphosphonate]
P2Y10/Gα16; 300 nM S1P
  inhibition of the S1P response, P2Y10: No inhibition at 30 mM (300 nM S1P)
P2Y10/Gα16; concentrations up to 30 μM
  inhibitory effect on P2Y10 when co-applied with S1P: no inhibitory effect
S1P5 [1]; S1P near EC70
  antagonist character at S1P5: partial antagonist
S1P5 [1]; at 30, 30 nM S1P
  maximal % inhibition of the S1P response, S1P5: 60.0% inhibition at 30 mM (30 nM S1P)
Recombinant ATX
  mechanism of ATX inhibition: competitive
Recombinant ATX; read-out: Ki, ATX, affinity for free enzyme
  Ki: 1000 nM
C57BL/6 mice; 6 h
  decrease in circulating lymphocytes: approximately 20%
C57BL/6 mice; 24 h
  circulating lymphocyte counts at 24 h: restored to pretreatment levels; also recorded: no significant decrease
S1P2 [2]
  S1P2 activation (in words): failed to activate
S1P4 [3]
  S1P4 activation (in words): failed to activate
LPA1,2,3,4,5 and GPR87
  Ca2+ mobilization responses in cells transfected with LPA receptors: unable to detect
S1P1 [4]
  desensitization of the S1P1 response to S1P after preincubation: almost no effect; also recorded: did not induce
S1P3 [5]
  S1P3 activation (in words): inactive
S1P1-eGFP
  S1P1-eGFP receptor internalization: failed to cause redistribution; also recorded: did not induce; also recorded: failed to cause receptor internalization
S1P1 [6]
  S1P1 activation, agonist character (in words): did not activate
Sphingosine kinase 1
  inhibition of sphingosine kinase 1: inhibitor
[7]; 100 ng/mL PTX, S1P 300 nM 5 min, (S)- or (R)-ene 1 μM 10 min
  effect of overnight PTX treatment on ERK1/2 activation: no significant effect
[7]; IEC-6 cells
  time of peak ERK1/2 and AKT phosphorylation: 5 to 15 min
[7]; IEC-6 cells, 100 nM
  ERK1/2 and AKT phosphorylation: elicited ERK1/2 and AKT phosphorylation
IEC-6 cells; 100 ng/mL PTX overnight, 300 nM compound
  effect of PTX treatment on the antiapoptotic action: partially inhibited
IEC-6 cells; 20 μM camptothecin 5 h, inverse bell-shape curve
  concentration of maximal protection against DNA fragmentation: 300 nM
IEC-6 cells; 15 min pretreatment, 20 μM camptothecin 5 h
  reduction in DNA fragmentation elicited by camptothecin: significant and dose-dependent reduction
IEC-6 cells; above 1 μM
  attenuation of DNA fragmentation at concentrations above 1 μM: no longer showed an attenuation
S1P4 [8]; S1P near EC70
  antagonist character at S1P4: full antagonist
S1P4 [8]; read-out: Ki, S1P4, cotreated with 5 nM S1P, ± SD
  Ki: 1190 nM
S1P1 [9]; S1P near EC70
  antagonist character at S1P1: full antagonist
S1P1 [9]; average residual error 1.09
  pKb, S1P1 (Schild analysis): 7.10 M
S1P1 [9]; read-out: Ki, S1P1, cotreated with 3 nM S1P, ± SD
  Ki: 384 nM
S1P1 [9]; [13]
  mechanism of antagonism, S1P1: competitive inhibition
S1P2 [10]; S1P near EC70
  antagonist character at S1P2: partial antagonist
S1P2 [10]; at 30, 30 nM S1P
  maximal % inhibition of the S1P response, S1P2: 40.0% inhibition at 30 mM (30 nM S1P)
S1P5 [11]
  S1P5 activation (in words): failed to activate
S1P3 [12]; S1P near EC70
  antagonist character at S1P3: full antagonist
S1P3 [12]; average residual error 0.62
  pKb, S1P3 (Schild analysis): 7.61 M
S1P3 [12]; read-out: Ki, S1P3, cotreated with 10 nM S1P, ± SD
  Ki: 39 nM
S1P3 [12]; [13]
  mechanism of antagonism, S1P3: competitive inhibition
